Laboratory results from PMC5218480 (PLoS ONE, 2017).

System: MV-4-11 cells
Test: Gene expression microarray analysis (Affymetrix PrimeView) and GSEA
Assay type: cell-based, human
Design: RFU PODN (11730768_x_at) / Fold change /veh PODN (11730768_x_at) / RFU LINC00158 (11744669_a_at) / Fold change /veh LINC00158 (11744669_a_at) / RFU DUSP10 (11751237_a_at) / Fold change /veh DUSP10 (11751237_a_at) / RFU ID3 (11757404_x_at) / Fold change /veh ID3 (11757404_x_at) / RFU PLEKHG5 (11737974_s_at) / Fold change /veh PLEKHG5 (11737974_s_at) / RFU LRRC4B (11730491_at) / Fold change /veh LRRC4B (11730491_at) / RFU GIMAP4 (11747438_a_at) / Fold change /veh GIMAP4 (11747438_a_at) / RFU KRT8 (11758183_x_at) / Fold change /veh KRT8 (11758183_x_at) / RFU CNN1 (11734310_a_at) / Fold change /veh CNN1 (11734310_a_at) / RFU VPS37D (11726825_at) / Fold change /veh VPS37D (11726825_at) / RFU C10orf10 (11716522_x_at) / Fold change /veh C10orf10 (11716522_x_at) / RFU KIR2DL2 /// KIR2DL4 /// KIR2DL5A /// KIR2DL5B /// KIR2DS1 /// KIR2DS2 /// KIR2DS3 /// KIR2DS4 /// KIR3DL3 /// KIR3DL3 /// KIR3DS1 (11738374_at) / Fold change /veh KIR2DL2 /// KIR2DL4 /// KIR2DL5A /// KIR2DL5B /// KIR2DS1 /// KIR2DS2 /// KIR2DS3 /// KIR2DS4 /// KIR3DL3 /// KIR3DL3 /// KIR3DS1 (11738374_at) / RFU C1QL1 (11718748_at) / Fold change /veh C1QL1 (11718748_at) / RFU TMPRSS4 (11747572_a_at) / Fold change /veh TMPRSS4 (11747572_a_at) / RFU HAMP (11756126_x_at) / Fold change /veh HAMP (11756126_x_at) / RFU RNFT2 (11725882_a_at) / Fold change /veh RNFT2 (11725882_a_at) / RFU NR4A2 (11747474_a_at) / Fold change /veh NR4A2 (11747474_a_at) / RFU ABCC12 (11746883_a_at) / Fold change /veh ABCC12 (11746883_a_at) / RFU TMEM136 (11760407_x_at) / Fold change /veh TMEM136 (11760407_x_at) / RFU CLDN22 /// WWC2 (11732394_at) / Fold change /veh CLDN22 /// WWC2 (11732394_at) / RFU HLA-DPB1 (11760878_x_at) / Fold change /veh HLA-DPB1 (11760878_x_at) / RFU SPINT1 (11716480_a_at) / Fold change /veh SPINT1 (11716480_a_at) / RFU GAP43 (11754022_s_at) / Fold change /veh GAP43 (11754022_s_at) / RFU A4GNT (11735810_at) / Fold change /veh A4GNT (11735810_at) / RFU PRB3 (11715151_x_at) / Fold change /veh PRB3 (11715151_x_at) / RFU TUBB4B (11761932_at) / Fold change /veh TUBB4B (11761932_at) / RFU CAPN14 (11732068_a_at) / Fold change /veh CAPN14 (11732068_a_at) / RFU TMCC2 (11721928_a_at) / Fold change /veh TMCC2 (11721928_a_at) / RFU IRGQ (11745062_a_at) / Fold change /veh IRGQ (11745062_a_at) / RFU FAM174B (11720279_a_at) / Fold change /veh FAM174B (11720279_a_at) / RFU TMPRSS4 (11748680_a_at) / Fold change /veh TMPRSS4 (11748680_a_at) / RFU FAM212B (11763350_a_at) / Fold change /veh FAM212B (11763350_a_at) / RFU PLEKHG5 (11743358_a_at) / Fold change /veh PLEKHG5 (11743358_a_at) / RFU ZSCAN30 (11745921_a_at) / Fold change /veh ZSCAN30 (11745921_a_at) / RFU CMKLR1 (11741424_a_at) / Fold change /veh CMKLR1 (11741424_a_at) / RFU LOC101060620 /// MAPK8IP1 (11723275_at) / Fold change /veh LOC101060620 /// MAPK8IP1 (11723275_at) / RFU SPTSSB (11747773_x_at) / Fold change /veh SPTSSB (11747773_x_at) / RFU PRSS12 (11739890_at) / Fold change /veh PRSS12 (11739890_at) / RFU BIN1 (11741810_x_at) / Fold change /veh BIN1 (11741810_x_at) / RFU WNT11 (11732464_a_at) / Fold change /veh WNT11 (11732464_a_at) / RFU C10orf10 (11716521_a_at) / Fold change /veh C10orf10 (11716521_a_at) / RFU C5orf56 (11738089_at) / Fold change /veh C5orf56 (11738089_at) / RFU CYB561 (11721691_x_at) / Fold change /veh CYB561 (11721691_x_at) / RFU ANKRD19P (11752326_a_at) / Fold change /veh ANKRD19P (11752326_a_at) / RFU OR2T12 /// OR2T33 /// OR2T8 (11738714_s_at) / Fold change /veh OR2T12 /// OR2T33 /// OR2T8 (11738714_s_at) / RFU VCAN (11748164_a_at) / Fold change /veh VCAN (11748164_a_at) / RFU JSRP1 (11732532_at) / Fold change /veh JSRP1 (11732532_at) / RFU KRTAP10-11 (11738290_x_at) / Fold change /veh KRTAP10-11 (11738290_x_at) / RFU MYO3A (11730013_a_at) / Fold change /veh MYO3A (11730013_a_at) / RFU EBF3 (11725865_a_at) / Fold change /veh EBF3 (11725865_a_at) / RFU CAMK2N1 (11719241_x_at) / Fold change /veh CAMK2N1 (11719241_x_at) / RFU C5orf56 (11738088_a_at) / Fold change /veh C5orf56 (11738088_a_at) / RFU OLFML3 (11715873_a_at) / Fold change /veh OLFML3 (11715873_a_at) / RFU LOC100653217 /// NTM (11731650_a_at) / Fold change /veh LOC100653217 /// NTM (11731650_a_at) / RFU MAPK11 (11762145_a_at) / Fold change /veh MAPK11 (11762145_a_at) / RFU FIZ1 (11724087_x_at) / Fold change /veh FIZ1 (11724087_x_at) / RFU OASL (11726364_x_at) / Fold change /veh OASL (11726364_x_at) / RFU SOX15 (11748057_x_at) / Fold change /veh SOX15 (11748057_x_at) / RFU CD79A (11719716_a_at) / Fold change /veh CD79A (11719716_a_at) / RFU HIST1H1D (11736915_at) / Fold change /veh HIST1H1D (11736915_at) / RFU CASKIN2 (11723855_a_at) / Fold change /veh CASKIN2 (11723855_a_at) / RFU LOC730098 (11760151_x_at) / Fold change /veh LOC730098 (11760151_x_at) / RFU OR4N2 (11742367_at) / Fold change /veh OR4N2 (11742367_at) / RFU PRRT2 (11749266_a_at) / Fold change /veh PRRT2 (11749266_a_at) / RFU SNX32 (11753110_a_at) / Fold change /veh SNX32 (11753110_a_at) / RFU CDHR5 (11726645_a_at) / Fold change /veh CDHR5 (11726645_a_at) / RFU RCAN1 (11760418_a_at) / Fold change /veh RCAN1 (11760418_a_at) / RFU FAM167A (11723789_a_at) / Fold change /veh FAM167A (11723789_a_at) / RFU FAM26E (11764081_at) / Fold change /veh FAM26E (11764081_at) / RFU ISYNA1 (11749810_s_at) / Fold change /veh ISYNA1 (11749810_s_at) / RFU ACY1 (11761880_at) / Fold change /veh ACY1 (11761880_at) / RFU 11764098_at / Fold change /veh 11764098_at / RFU SAMD14 (11745864_x_at) / Fold change /veh SAMD14 (11745864_x_at) / RFU NPB (11741838_a_at) / Fold change /veh NPB (11741838_a_at) / RFU TMPRSS6 (11731388_a_at) / Fold change /veh TMPRSS6 (11731388_a_at) / RFU KRTAP10-2 (11738614_at) / Fold change /veh KRTAP10-2 (11738614_at) / RFU ARHGAP8 /// PRR5-ARHGAP8 (11727945_x_at) / Fold change /veh ARHGAP8 /// PRR5-ARHGAP8 (11727945_x_at) / RFU KRTAP5-7 /// NADSYN1 (11734609_at) / Fold change /veh KRTAP5-7 /// NADSYN1 (11734609_at) / RFU RASL12 (11751679_a_at) / Fold change /veh RASL12 (11751679_a_at) / RFU CDKN2B (11736163_a_at) / Fold change /veh CDKN2B (11736163_a_at) / RFU PRF1 (11729649_at) / Fold change /veh PRF1 (11729649_at) / RFU, ZNF638 /// ZNF638-IT1 / Fold change vs veh, ZNF638 /// ZNF638-IT1 / RFU, PANK3 / Fold change vs veh, PANK3 / RFU, SH3YL1 / Fold change vs veh, SH3YL1 / RFU, ZEB2 / Fold change vs veh, ZEB2 / RFU, NRIP1 / Fold change vs veh, NRIP1 / RFU, PTTG1IP / Fold change vs veh, PTTG1IP / RFU, CAPN2 / Fold change vs veh, CAPN2 / RFU, MED14 / Fold change vs veh, MED14 / RFU, SNORA58 / Fold change vs veh, SNORA58 / RFU, C1orf63 / Fold change vs veh, C1orf63 / RFU, LRRFIP1 / Fold change vs veh, LRRFIP1 / RFU, NDUFAF7 / Fold change vs veh, NDUFAF7 / RFU, SLC12A2 / Fold change vs veh, SLC12A2 / RFU, IBTK / Fold change vs veh, IBTK / RFU, ESF1 / Fold change vs veh, ESF1 / Fold change vs veh, TMEM50B / RFU, TAOK1 / Fold change vs veh, TAOK1 / RFU, ACBD3 / Fold change vs veh, ACBD3 / RFU, TMA16 / Fold change vs veh, TMA16 / RFU, RWDD3 / Fold change vs veh, RWDD3 / RFU, BCAT1 / Fold change vs veh, BCAT1 / RFU, EDEM3 / Fold change vs veh, EDEM3 / RFU, TMEM33 / Fold change vs veh, TMEM33 / RFU, WDR75 / Fold change vs veh, WDR75 / RFU, AHCTF1 / Fold change vs veh, AHCTF1 / RFU, TFRC / Fold change vs veh, TFRC / RFU, ZDHHC17 / Fold change vs veh, ZDHHC17 / RFU, NOM1 / Fold change vs veh, NOM1 / RFU, ARL8B / Fold change vs veh, ARL8B / RFU, ZBTB11 / Fold change vs veh, ZBTB11 / RFU, TAMM41 / Fold change vs veh, TAMM41 / RFU, KIAA1704 /// LOC100996395 / Fold change vs veh, KIAA1704 /// LOC100996395 / RFU, ING1 / Fold change vs veh, ING1 / RFU, TRMT61B / Fold change vs veh, TRMT61B / RFU, FUBP3 / Fold change vs veh, FUBP3 / RFU, TP53 / Fold change vs veh, TP53 / RFU, TNKS2 / Fold change vs veh, TNKS2 / RFU, ZFP14 / Fold change vs veh, ZFP14 / RFU, ACTR2 / Fold change vs veh, ACTR2 / RFU, PPP3R1 / Fold change vs veh, PPP3R1 / RFU, PIK3R1 / Fold change vs veh, PIK3R1 / RFU, HNRNPA1 / Fold change vs veh, HNRNPA1 / RFU, RNF170 / Fold change vs veh, RNF170 / RFU, ZNF28 / Fold change vs veh, ZNF28 / RFU, RNGTT / Fold change vs veh, RNGTT / RFU, OGT / Fold change vs veh, OGT / RFU, BRD1 / Fold change vs veh, BRD1 / RFU, MARS / Fold change vs veh, MARS / RFU, ZNF655 / Fold change vs veh, ZNF655 / RFU, FAHD1 / Fold change vs veh, FAHD1 / RFU, BDP1 / Fold change vs veh, BDP1 / RFU, LRRCC1 / Fold change vs veh, LRRCC1 / RFU, ARID1A / Fold change vs veh, ARID1A / RFU, ZNF146 / Fold change vs veh, ZNF146 / RFU, ZNF330 / Fold change vs veh, ZNF330 / RFU, GPN3 / Fold change vs veh, GPN3 / RFU, C9orf123 / Fold change vs veh, C9orf123 / RFU, N4BP2L2 / Fold change vs veh, N4BP2L2 / RFU, ARFIP1 / Fold change vs veh, ARFIP1 / RFU, FAM179B / Fold change vs veh, FAM179B / RFU, BCL10 / Fold change vs veh, BCL10 / RFU, UHRF1BP1L / Fold change vs veh, UHRF1BP1L / RFU, BET1 / Fold change vs veh, BET1 / RFU, CNOT2 / Fold change vs veh, CNOT2 / RFU, ZNF268 / Fold change vs veh, ZNF268 / Fold change vs veh, ZNF507 / RFU, DGCR2 / Fold change vs veh, DGCR2 / RFU, WDSUB1 / Fold change vs veh, WDSUB1 / Fold change vs veh, HSP90B1 /// MIR3652 / RFU, ADSS / Fold change vs veh, ADSS / RFU, GK / Fold change vs veh, GK / RFU, ZNF148 / Fold change vs veh, ZNF148 / RFU, TAF9 / Fold change vs veh, TAF9 / RFU, SLC1A5 / Fold change vs veh, SLC1A5 / RFU, SLMO2 / Fold change vs veh, SLMO2 / RFU, ABCC4 / Fold change vs veh, ABCC4 / RFU, LOC101060439 /// RAP1B / Fold change vs veh, LOC101060439 /// RAP1B / RFU, RFX7 / Fold change vs veh, RFX7 / RFU, GTPBP10 / Fold change vs veh, GTPBP10 / RFU, CNEP1R1 / Fold change vs veh, CNEP1R1 / RFU, BIVM-ERCC5 /// ERCC5 / Fold change vs veh, BIVM-ERCC5 /// ERCC5 / RFU, ILF3 / Fold change vs veh, ILF3 / RFU 11762660_at / Fold change /veh 11762660_at / RFU VCAN (11757783_s_at) / Fold change /veh VCAN (11757783_s_at) / RFU DDX43 (11728927_at) / Fold change /veh DDX43 (11728927_at) / RFU KRT8 (11758188_x_at) / Fold change /veh KRT8 (11758188_x_at) / RFU NKD1 (11759106_at) / Fold change /veh NKD1 (11759106_at) / RFU SRD5A1 (11742802_a_at) / Fold change /veh SRD5A1 (11742802_a_at) / RFU TPSAB1 /// TPSB2 (11721975_s_at) / Fold change /veh TPSAB1 /// TPSB2 (11721975_s_at) / RFU GSTM3 (11746129_a_at) / Fold change /veh GSTM3 (11746129_a_at) / RFU IL23R (11737362_x_at) / Fold change /veh IL23R (11737362_x_at) / RFU TMEM51 (11727254_a_at) / Fold change /veh TMEM51 (11727254_a_at) / RFU PIWIL2 (11732686_x_at) / Fold change /veh PIWIL2 (11732686_x_at) / RFU ORM1 (11744905_x_at) / Fold change /veh ORM1 (11744905_x_at) / RFU CCDC152 (11743942_at) / Fold change /veh CCDC152 (11743942_at) / RFU ECM1 (11717891_a_at) / Fold change /veh ECM1 (11717891_a_at) / RFU IL23R (11748794_a_at) / Fold change /veh IL23R (11748794_a_at) / RFU TNFAIP8L3 (11732012_x_at) / Fold change /veh TNFAIP8L3 (11732012_x_at) / RFU MBOAT4 (11741988_at) / Fold change /veh MBOAT4 (11741988_at) / RFU 11764193_at / Fold change /veh 11764193_at / RFU TMEM53 (11763286_at) / Fold change /veh TMEM53 (11763286_at) / RFU MAGEB2 (11727129_at) / Fold change /veh MAGEB2 (11727129_at) / RFU TMEM200A (11744735_a_at) / Fold change /veh TMEM200A (11744735_a_at) / RFU CCDC152 (11751479_a_at) / Fold change /veh CCDC152 (11751479_a_at) / RFU FAM211A (11726209_a_at) / Fold change /veh FAM211A (11726209_a_at) / RFU RGS16 (11746705_a_at) / Fold change /veh RGS16 (11746705_a_at) / RFU VCAN (11755009_s_at) / Fold change /veh VCAN (11755009_s_at) / RFU RHOB (11743442_s_at) / Fold change /veh RHOB (11743442_s_at) / RFU RGS16 (11720943_a_at) / Fold change /veh RGS16 (11720943_a_at) / RFU RGS16 (11720944_at) / Fold change /veh RGS16 (11720944_at) / RFU, VPS4B / Fold change vs veh, VPS4B / RFU, CREB1 / Fold change vs veh, CREB1 / RFU, DNAJC13 / Fold change vs veh, DNAJC13 / RFU, GNAQ / Fold change vs veh, GNAQ / RFU, CDK5R1 / Fold change vs veh, CDK5R1 / RFU, ZRANB3 / Fold change vs veh, ZRANB3 / RFU, CUL4A / Fold change vs veh, CUL4A / RFU, CCNY / Fold change vs veh, CCNY / RFU, UFL1 / Fold change vs veh, UFL1 / RFU, COG3 / Fold change vs veh, COG3 / RFU, DIAPH2 / Fold change vs veh, DIAPH2 / RFU, SKA2 / Fold change vs veh, SKA2 / RFU, AFF3 / Fold change vs veh, AFF3 / RFU, LMF1 / Fold change vs veh, LMF1 / RFU, IPO11 / Fold change vs veh, IPO11 / RFU, DFFB / Fold change vs veh, DFFB / RFU, FOXP1 / Fold change vs veh, FOXP1 / RFU, CARD8 / Fold change vs veh, CARD8 / RFU, STRN3 / Fold change vs veh, STRN3 / RFU, ADK / Fold change vs veh, ADK / RFU, RASSF2 / Fold change vs veh, RASSF2 / RFU, WIPF1 / Fold change vs veh, WIPF1 / RFU, LARP1B / Fold change vs veh, LARP1B / RFU, RASA1 / Fold change vs veh, RASA1 / RFU, RB1 / Fold change vs veh, RB1 / RFU, PPFIA1 / Fold change vs veh, PPFIA1 / RFU, MAT2A / Fold change vs veh, MAT2A / RFU, CCT5 / Fold change vs veh, CCT5 / RFU, WDR92 / Fold change vs veh, WDR92 / RFU, CUX1 / Fold change vs veh, CUX1 / RFU, TTC7A / Fold change vs veh, TTC7A / RFU, TMEM135 / Fold change vs veh, TMEM135 / RFU, DEPTOR / Fold change vs veh, DEPTOR / RFU, CPM / Fold change vs veh, CPM / RFU, DNAJB6 / Fold change vs veh, DNAJB6 / RFU, CACNA2D3 / Fold change vs veh, CACNA2D3 / RFU, DTX4 / Fold change vs veh, DTX4 / RFU, TFCP2 / Fold change vs veh, TFCP2 / RFU, GMCL1 /// GMCL1P1 / Fold change vs veh, GMCL1 /// GMCL1P1 / RFU, AEBP2 / Fold change vs veh, AEBP2 / RFU, SNHG1 /// SNORD22 /// SNORD25 /// SNORD26 /// SNORD27 /// SNORD28 /// SNORD29 /// SNORD31 / Fold change vs veh, SNHG1 /// SNORD22 /// SNORD25 /// SNORD26 /// SNORD27 /// SNORD28 /// SNORD29 /// SNORD31 / Fold change (Aza/veh), C12orf56 (ProbeSet 11735607_a_at) / Fold change (ACY-1035/veh), C12orf56 (ProbeSet 11735607_a_at) / Fold change (Aza/veh), FGFR1OP (ProbeSet 11751329_s_at) / Fold change (ACY-1035/veh), FGFR1OP (ProbeSet 11751329_s_at) / Fold change (Aza/veh), VPS36 (ProbeSet 11739960_a_at) / Fold change (ACY-1035/veh), VPS36 (ProbeSet 11739960_a_at) / RFU SYPL1 (11715823_x_at) / Fold change /veh SYPL1 (11715823_x_at) / RFU IGFBP7 (11715501_s_at) / Fold change /veh IGFBP7 (11715501_s_at) / RFU REEP3 (11722064_at) / Fold change /veh REEP3 (11722064_at) / RFU IGLL1 (11728026_x_at) / Fold change /veh IGLL1 (11728026_x_at): dose or concentration left out as unconfirmed
Settings: ProbeSet 11728443_a_at; LIST B

SMILES: Nc1ccc(-c2cccs2)cc1NC(=O)c1ccc2c(c1)cc(C1CC1)n2CCN1CCOCC1 [ACY-1035]
- Fold change vs veh, TAOK1: 0.89
